Measured values as given in patent US20050267016A1, “CD-10 activated prodrug compounds” (priority 2001, published 2005).
Where “and” joins values, the source holds several entries; their conditions need not be identical. Equal values may be shown once. Read-outs that look alike come from different tables or passages of the source. Marks after values point to notes of the source that are not given here.

Columns and labels:
[1] = Metabolism and clearance in normal mice (plasma and urine, LC MS/MS); assay type: in vivo; conditions: mouse, in vivo; for dose excreted: iv, 117 mg/kg
Protocol: The metabolism and clearance of Suc-Ile-Ala-Leu-Dox was studied in normal mice. The mice were administered Suc-Ile-Ala-Leu-Dox at a single intravenous bolus dose of 117 mg/kg. Plasma samples were obtained at 1 and 4 hours. Plasma samples of 100 μl were transferred to microcentrifuge tubes (1.5 mL) and an internal standard of daunorubicin (20 μL at 0.5 mg/ml) was added together with acetonitrile (400 μl). The tubes were capped and briefly vortexed followed by centrifugation at 14,000 rpm. 420 μl from each tube was removed and dried in vacuo. Each sample was reconstituted in 65 μl 20 mM aqueous ammonium formate pH 4.5 buffer (AF) containing acetonitrile (20%) prior to analysis by reverse phase liquid chromatography in combination with tandem mass spectrometry (LC MS/MS).
Urine was collected at 2 and 24 hours post administration from pairs of mice in metabolic cages. Urine samples were diluted with AF containing acetonitrile (20%) to give a target analyte concentration within the practical range of the LC MS/MS assay. 30 μl of each diluted sample was placed in an Eppendorf tube (1.5 ml) and an internal standard of daunorubicin (20 μL at 0.5 mg/ml) was added together with 50 μl of AF containing acetonitrile (20%). Each sample was then analyzed by LC MS/MS.
An Agilent HP1100 HPLC with DAD detector and Chemstation software was coupled to a PE Sciex API 365 mass spectrometer with an electrospray ion source. HPLC was performed on a TSK-Gel Super ODS, […], 4.6×50 mm (TosoHaas) reversed phase column equipped with a […] C18 guard disc (Higgins Analytical) and stainless steel frit (Upchurch Scientific). Chromatography was performed at room temperature. The flow rate was 0.5 ml/min. Injection volume was 50 μL. Gradient elution was performed using a mobile phase of 20 mM aqueous AF pH 4.5 buffer with increasing amounts of acetonitrile. The API 365 was operated at 365° C. in a multiple reaction monitoring mode, set to monitor specific analyte parent-daughter ion pairs. Integration of chromatograms was performed by MacQuant software (PE Sciex) and quantitation of each analyte obtained by comparison to previously obtained calibration curves. Daunorubicin was used as an internal standard in all cases.
For the calculation of percent of administered dose, plasma volume was estimated to be 40% of blood volume, which was calculated as 7% of animal's body weight. At 2 and 24 hours the parent compound was detected in urine at 3.9% and 15.0% of the administered dose, showing that the kidney is a major organ of excretion for the prodrug (FIG. 17).
Plasma samples were obtained at 1 and 4 hours from separate mice. Urine was collected at 2 and 24 hours post administration from pairs of mice in metabolic cages. The plasma and urine samples were prepared and analyzed as described in Example 17.

[2] = mouse, in vivo, iv, 100 umol/kg
Protocol: (§5) Plasma was obtained from three individual animals in each group at 5 minutes, 1, 2, 4, or 6 hr.

[3] = tested on: LNCaP (prostate carcinoma) cells; conditions: ratio of IC50
Protocol: (§1) Adherent cells, LNCaP (prostate carcinoma), HT-29 (colon carcinoma) and PC-3 (prostate carcinoma), were cultured in DMEM media containing 10% heat inactivated fetal calf serum (FCS). On the day of the study the cells were detached from the plate with a trypsin solution. The collected cells were washed and resuspended at a concentration of 0.25×10^6 cells/ml in DMEM containing 10% FCS. 100 μl of cell suspension were added to 96 well plates and the plates were incubated for 3 hours to allow the cells to adhere. […] The plates were then incubated for 24 hours, pulsed with 10 μl of a 100 μCi/ml ^3H-thymidine and incubated for an additional 24 hours (total incubation time 48 hours). The plates were harvested using a 96 well Harvester (Packard Instruments) and counted on a Packard Top Count Counter. Four parameter logistic curves were fitted to the ^3H-thymidine incorporation as a function of drug molarity using Prism software to determine IC50 values.
as §1, with “carcinoma), PC-3 (prostate” for “carcinoma), HT-29 (colon”, “and 22 RV1” for “and PC-3”, “with 1:0” for “with 10”
(§2) The effect of two known inhibitors of CD10 on prodrug activity in Ramos, LNCaP and Ball-1 cells was evaluated. The IC50 of Suc-βAla-Ile-Ala-Leu-Dox was determined in the presence of increasing concentration of the CD10 inhibitors, phosphoramidon and thiorphan.

Namalwa cells (CD10pos) = assay: cells; assay type: cell-based; conditions: ratio of IC50
Protocol: (§3) Suspension cells, BALL-1, Ramos and Namalwa cells were cultured in RPMI media containing 10% heat inactivated fetal calf serum (FCS). On the day of the study, the cells were collected, washed and resuspended at a concentration of 0.5×10^6 cells/ml in RPMI containing 10% FCS. 100 µl of cell suspension was added to 96 well plates. […] Finally 10 μl of a 100 μCi/ml ^3H-thymidine was added per well and the plates were incubated for 24 hours. The plates were harvested using a 96 well Harvester (Packard Instruments) and counted on a Packard Top Count counter. Four parameter logistic curves were fitted to the ^3H-thymidine incorporation as a function of drug molarity using Prism software to determine IC50 values.

[4] = tested on: LNCaP human prostate carcinoma xenografts
Protocol: LNCaP human prostate carcinoma cells express high levels of CD10 on the surface. Suc-βAla-Leu-Ala-Leu-Dox and Suc-Leu-Ala-Gly-Dox were tested at a single dose level Q7Dx5. […] The mice were weighed and tumors were measured (by caliper) at least once a week prior to start of dosing (Day 0), then twice a week during the study. Immediately before the start of dosing (Study Day −2 to Day 0), mice were randomized to various groups based on the weight of the tumors. […] Mice were euthanized after the tumors reached a cutoff weight of 1.5 g (cancer endpoint), or when mice suffered over 25% weight loss (toxic endpoint). Studies were terminated at Day 60.

[5] = tested on: CD10 transfected CHO cells (clone 8); assay: Conversion to Leu-Dox or Gly-Dox in cell supernatants, CD10 transfected CHO; assay type: cell-based, Chinese Hamster; conditions: Clone 8 (CD10 transfected), 10 μM, 37° C.
Protocol: (§4) To directly ask the question of whether the CD10 expressing cells were capable of cleaving the prodrug, supernatants from CD10 transfected or parental CHO cells treated with the compounds were collected. […] After incubation for 1, 4, and 24 hours, an aliquot of each supernatant was transferred to a 96-well plate and frozen at −20° C. Samples were subsequently thawed and analyzed by reversed phase HPLC (4.6×50 mm 21 TSK Super-ODS column) with fluorescence detection after dilution with 3 volumes of acetonitrile, removal of precipitate by centrifugation, and further dilution into 3 volumes of water. When incubated with Suc-βAla-Leu-Ala-Leu-Dox, there was no detectable metabolism to Leu-Dox observed with the parental cell line while clone 8 (CD10 transfected) generated significant levels of Leu-Dox from Suc-βAla-Leu-Ala-Leu-Dox (Table 27).

[6] = tested on: human colon carcinoma (HT-29) xenograft
Description: Healthy young male nude mice were subcutaneously injected with 5 million of HT-29 cells.

[7] = tested on: LNCaP prostate carcinoma xenograft; assay: LNCaP prostate carcinoma xenograft in nude mice, Q7D × 3 (Examples 30, 31)
Protocol: In this model, 7.5 million LNCaP cells resuspended in 0.1 ml of phosphate buffered saline and 0.1 ml of Matrigel (Becton Dickinson) were injected into the side of male nude mice fed on high fat diet.

[8] = mouse, in vivo, iv, 100 umol/kg; remark: listed apart in the source
Protocol: as §5

LNCaP xenografts = assay: LNCaP xenograft in SCID mice, Q6DX2, equitoxic comparison (Example 27); assay type: in vivo, C.B-17.SCID mice
Protocol: All compounds except Suc-βAla-Leu-Ala-Leu-Dox (three levels) were dosed at two levels with the goal to get a dose response for all compounds.
Knowing that the LNCaP tumor bearing nude mice have weight loss, we chose very conservative dose levels for each compound estimated to be well-tolerated equitoxic doses based on earlier studies and SD-MTD results. The high dose level for repeat dosing is usually 80% of their SD-MTD, and the low dose level is 80% of the high dose level. Accordingly, groups of ten male CD17.SCID mice, subcutaneously injected with 2.5 million LNCaP cells, were treated intravenously with the compounds at the levels described in Table 22 at six day intervals for a total of two identical doses (Q6DX2).
LNCaP tumors grew well in SCID mice, but the SCID mice with LNCaP tumor xenografts experienced severe weight loss, as 80% of control mice had more than 25% of weight loss by the end of the study. Nevertheless, the efficacy of different treatments at approximately equitoxic levels were compared based on the time it took for 50% of mice to reach toxic weight loss and the total numbers of mice with toxic weight loss at the end of study.

Ramos cells (CD10pos) = assay: cells
Protocol: as §3, §2

Parental CHO cells = assay: Conversion to Leu-Dox or Gly-Dox in cell supernatants, parental CHO; assay type: cell-based, Chinese Hamster; conditions: 10 μM, 37° C.
Protocol: as §4

Porcine Kidney CD10 = assay: Hydrolysis by purified CD10; assay type: biochemical
Protocol: Reaction products were analyzed by HPLC with fluorescence detection. Rates were essentially linear over the incubation period. The observed product was Leu-doxorubicin.

BALL-1 cells (CD10neg) = assay: cells; conditions: 24 h
Protocol: as §3, §2

[9] = 40 mg/kg every 7 days for 5 doses
[10] = 67 mg/kg every 7 days for 5 doses

COc1cccc2c1C(=O)c1c(O)c3c(c(O)c1C2=O)C[C@@](O)(C(=O)CO)C[C@@H]3O[C@H]1C[C@H](NC(=O)[C@H](CC(C)C)NC(=O)[C@H](C)N)[C@H](O)[C@H](C)O1 [Ala-Leu-Dox]
Plasma (% adm. dose) 1 hr [1]: 0.00 % adm. dose
Plasma (% adm. dose) 4 hr [1]: 0.00 % adm. dose
dose excreted ([1]; Urine (% adm. dose) 2 hr): 0%
dose excreted ([1]; Urine (% adm. dose) 24 hr): 0%

COc1cccc2c1C(=O)c1c(O)c3c(c(O)c1C2=O)C[C@@](O)(C(=O)CO)C[C@@H]3O[C@H]1C[C@H](NC(=O)[C@@H](N)CC(C)C)[C@H](O)[C@H](C)O1 [Leu-Dox]
dose excreted ([1]; Urine (% adm. dose) 2 hr): 1.17%
dose excreted ([1]; Urine (% adm. dose) 24 hr): 2.25%

COc1cccc2c1C(=O)c1c(O)c3c(c(O)c1C2=O)C[C@@](O)(C(=O)CO)C[C@@H]3O[C@H]1C[C@H](NC(=O)CNC(=O)[C@H](C)NC(=O)[C@H](CC(C)C)NC(=O)CCC(=O)O)[C@H](O)[C@H](C)O1 [Suc-Leu-Ala-Gly-Dox]
AUC(0-t) [2]: 310 µM·h
Ratio PC-3:LNCaP [3]: 3
Ratio Ball-1:Namalwa (Namalwa cells (CD10pos)): 1
Tumor Weight (mg) D12 ([4]; Dose 110 mg/kg (Table 19), Q7DX5): D12: 795 ± 177 (n = 7) mg
Toxicity (Weight Loss >25%) ([4]; Dose 110 mg/kg (Table 19), Q7DX5, mice affected/total): 1/7
Tumor Growth Inhibition (% over control) ([4]; mouse, in vivo, 110 mg/kg): 1.4%
Conversion rate to Leu-Dox or Gly-Dox [5]: 0.06 mM/h
Percent Conversion/Hour to Leu-Dox or Gly-Dox [5]: 0.61 Percent Conversion/Hour
% TGI (Day 14, mean) [6, 9]: 4.0%
% TGI (Day 25, median) [6, 9]: 37.2%
Calculated Mean Day of Survival [6, 9]: 39 days and 38.8 ± 6.6 days
Mean Tumor Weight at Day 14 [6, 9]: 704 ± 92 mg
Median Tumor Weight at Day 25 [6, 9]: 952 mg
Number of Long Term Survivors [6, 9]: 1/7
Toxicity (Weight Loss >20%) [6, 9]: 0/7
% TGI (Day 14, mean) [6, 10]: 33.2%*
% TGI (Day 25, median) [6, 10]: 43.5%
Calculated Mean Day of Survival [6, 10]: 41 days and 41.3 ± 7.2 days
Mean Tumor Weight at Day 14 [6, 10]: 490 ± 124 mg
Median Tumor Weight at Day 25 [6, 10]: 857 mg
Number of Long Term Survivors [6, 10]: 3/7
Toxicity (Weight Loss >20%) [6, 10]: 0/7
TGI D22 ([7]; 110 mg/kg (70 Dox equi) Q7D × 3): 39.7±29.5%
Survivor D36 ([7]; 110 mg/kg Q7D × 3, N 8): D36: 6*
Toxic Endpoint ([7]; 110 mg/kg Q7D × 3, >20% body weight loss): 0
Cancer Endpoint ([7]; 110 mg/kg Q7D × 3, tumors reaching 1000 mg): 2
Plasma AUC0-6 hr of AL-Dox or AG-Dox* [8]: 2.1 µM·h
Plasma AUC0-6 hr of L-Dox or G-Dox* [8]: 0.9 µM·h
% Weight Loss at the end of study (LNCaP xenografts; 110 mg/kg Q6DX2): 80%
Time: 50% Weight Loss (LNCaP xenografts; 110 mg/kg Q6DX2): 33 days
% Weight Loss at the end of study (LNCaP xenografts; 132 mg/kg Q6DX2): 80%
Time: 50% Weight Loss (LNCaP xenografts; 132 mg/kg Q6DX2): 29 days
Ratio Ball-1:Ramos (Ramos cells (CD10pos); ratio of IC50): 1
Conversion rate to Leu-Dox or Gly-Dox (Parental CHO cells): 0.06 mM/h
Percent Conversion/Hour to Leu-Dox or Gly-Dox (Parental CHO cells): 0.57 Percent Conversion/Hour
% hydrolysis/10 hr (Porcine Kidney CD10; 12.5 μg/mL, 37° C., pH 7.4, product Leu-doxorubicin): 0 % hydrolysis/10 hr
Fraction hydrolyzed relative to standard (Porcine Kidney CD10; standard Suc-βAla-Leu-Ala-Leu-Dox): 0

COc1cccc2c1C(=O)c1c(O)c3c(c(O)c1C2=O)C[C@@](O)(C(=O)CO)C[C@@H]3O[C@H]1C[C@H](NC(=O)[C@H](CC(C)C)NC(=O)[C@H](Cc2ccc(O)cc2)NC(=O)[C@H](CC(C)C)NC(=O)CCC(=O)O)[C@H](O)[C@H](C)O1 [Suc-Leu-Tyr-Leu-Dox]
IC50 (BALL-1 cells (CD10neg)): 17 µM
IC50 (Ramos cells (CD10pos); 24 h): 20 µM
